Laboratory results taken from US8088818B2, “Catechol-based derivatives for treating or preventing diabetics” (National Taiwan University, priority 2006, dated 2012).

How the values were obtained:
Normal rats = experiment: Blood sugar lowering in normal rats after oral administration; type: in vivo, rat; settings: 0.5 mg/kg oral; for % decrease in plasma glucose: Table 14; for Pre-treatment Plasma glucose: pre-treatment (baseline)
Procedure: (a) Male Wistar rats are provided from the National Laboratory Animal Breeding and Research Center (Taipei, Taiwan), each of whose weight is about 200-250 grams, and the average age thereof is above 8 weeks. They were housed under conditions of constant temperature (25±1[…]) and controlled illumination (light time and dark time are respectively 12 hours). Food and water were available.
(§1) (d) The administration: Dissolve the medicine equivalently in deionized water, and then administrate the mentioned solution into the normal and diabetic rats by an orally perfusion. Keep with the desired concentration of the perfusion amount by taking suitable amount of the medicine solution according to the weight of the different animal.
(§2) The rats to be experimented should undergo a starvation for 8-12 hours overnight. Next day, the rats are anesthetized with 30 mg/kg pentobarbital by injecting into the abdominal cavity. After the rats fall asleep, fix the rats on the board with the rubber band. Open the groin, find the veins, bleed 0.1 ml blood from an empty stomach, and then feed the medicine into the body of the rats by taking orally. After 90 minutes, bleed and perform a centrifugation (13,000 rpm, 5 minutes) to separate the serum and the plasma. Take the 10 μl supernatant of the serum and add 1 ml reagent of the glucose kit thereinto by gently mixing. React for 5 minutes at 37 °C, followed by detecting the value of the blood sugar by means of BST330 based on the different absorption level. […] The value of the blood sugar (mg/dL) is calculated by comparing the level of redness with contrasting the standard curve.
(§3) (The value of blood sugar at postadministration)−(The value of blood sugar at preadministration)/(The value of blood sugar at preadministration)×100%
The results of the experiments are presented in the average value±the standard error (mean±SE), and the variations therebetween are evaluated according to the Student's t-test, while the variations thereamong are evaluated according to one-way ANOVA and Bonferroni's t-test, wherein P<0.05 is deemed to have apparent differences.

coronary artery = experiment: Flow rate of the coronary artery in the isolated perfused rat heart (Langendorff); settings: for effect on coronary flow rate (in words): Wistar rats, Tables 15 and 16; for coronary flow: isolated Wistar rat heart
Procedure: Each of the male Wistar rats weighs about 200-250 grams, and is anesthetized with 25 mg/kg pentobarbital and 16 mg/kg heparin by injecting into the abdominal cavity. After falling asleep, separate the cervical vertebra and immediately take the heart out hanging on the constant pouring pressure circulation instrument (Langendorff, AD Instruments Pty Ltd, ML870B2) and fill a 37[…] pouring solution of 95% of oxygen and 5% of carbon dioxide with the artery (119.7 mM NaCl, 23.8 mM NaHCO3, 5.6 mM glucose, 1.2 mM CaCl2, 1.1 mM MgCl2, 0.3 mM NaH2PO4, and 5.0 mM KCl), which washes the heart and clean out the blood water by pouring in a reverse direction. The rate of the reverse pouring is 10 ml/min, followed by maintaining the pouring pressure of the coronary artery at 80 mmHg. After balancing for thirty minutes, measure the rate of the pouring solution flowing in the heart, and observe the change of the rate the pouring solution flowing in the heart while the testing drug is added.

Type 2 diabetic rats = experiment: Blood sugar lowering in insulin-induced type 2 diabetic rats after oral administration; type: in vivo, rat; settings: type II diabetic rats, 1 mg/kg, p.o., 90 minutes
Procedure: (c) Insulin-induced type 2 diabetic rats: the abdominal cavity of the male Wistar rats of 12 weeks age are injected with 0.5 IU/kg long-term insulin (MonotardR HM) three times a day for fourteen days. Then, the 10 mg/kg tolbutamide, an anti-diabetic drug of sulfonylurea class, is injected into the abdominal cavity. Phlebotomize 0.1 ml blood respectively at the preadministration and the postadministration of sixty minutes, and calculate the reduced value of the blood sugar. If the variation of the ability of lowering blood sugar is less than 10%, which is deemed as the type II (insulin resistance) diabetes rat.
as §1, §2, §3

[1] = literature; cited from earlier work

Row | Structure (SMILES) | % decrease in plasma glucose (Normal rats) [%] | Post-treatment Plasma glucose (Normal rats) [mg/dL] | Pre-treatment Plasma glucose (Normal rats) [mg/dL] | effect on coronary flow rate (in words) (coronary artery) | coronary flow (coronary artery; conc. 0 (baseline)) [mL/min] | coronary flow (coronary artery; conc. 1 (unit printed .[…]M)) [mL/min] | coronary flow (coronary artery; conc. 3 (unit printed .[…]M)) [mL/min] | coronary flow (coronary artery; conc. 0.1 (unit printed .[…]M)) [mL/min] | coronary flow (coronary artery; conc. 0.3 (unit printed .[…]M)) [mL/min] | coronary flow (coronary artery; conc. 10 (unit printed .[…]M)) [mL/min] | also measured
1 | CCCCNC(=O)C=Cc1ccc2c(c1)OCO2 |  |  |  |  |  |  |  |  |  |  | melting point: 82 to 83 °C
2 | O=C(/C=C/c1ccc2c(c1)OCO2)NCCc1ccccc1 [615 (37)] | 23.9 ± 2.1 | 105.2 ± 3.5 | 138.3 ± 4.1 |  |  |  |  |  |  |  | 
3 | COc1ccc(CCNC(=O)C=Cc2ccc(O)c(O)c2)cc1OC [638 A] | 18.1 ± 2.9 | 83.6 ± 1.9 | 102.5 ± 2.4 |  |  |  |  |  |  |  | 
4 | O=C(C=Cc1ccc(O)c(O)c1)NCCc1ccc(Br)cc1 [638 B] | 21.4 ± 3.0 | 76.8 ± 4.1 | 98.1 ± 5.2 |  |  |  |  |  |  |  | 
5 | CC(=O)Oc1ccc(C=CC(=O)NCCc2ccccc2)cc1OC(C)=O [639 B] | 28.1 ± 3.3 | 84.0 ± 5.0 | 116.7 ± 2.8 | capable of increasing the coronary flow rate | 7.4 ± 0.2 | 9.0 ± 0.4 | 11.6 ± 0.6 |  |  |  | 
6 | O=C(C=Cc1ccc(O)c(O)c1)Nc1ccc(O)cc1 [Compound 638H] |  |  |  |  | 9.0 ± 0.3 | 9.1 ± 0.5 | 10.1 ± 0.7 | 9.0 ± 0.5 | 8.9 ± 0.5 | 13.1 ± 1.0 | 
7 | O=C(C=Cc1ccc(O)c(O)c1)NCc1cccc(F)c1 [Compound 638I] |  |  |  | capable of increasing the coronary flow rate | 7.4 ± 0.7 | 7.6 ± 0.8 | 8.2 ± 0.8 | 7.1 ± 0.5 | 7.1 ± 0.5 | 9.3 ± 0.7 | 
8 | COc1cc(/C=C/C(=O)NCCc2ccccc2)ccc1O [Compound 640] |  |  |  | capable of increasing the coronary flow rate | 9.7 ± 1.3 | 10.3 ± 1.5 | 11.0 ± 1.5 | 10.1 ± 1.5 | 10.2 ± 1.4 | 14.6 ± 2.2 | 
9 | CN(Cc1ccccc1)C(=O)C=Cc1ccc(O)c(O)c1 [Compound 642A] |  |  |  | capable of increasing the coronary flow rate | 10.0 ± 0.7 | 16.8 ± 1.6 | 19.8 ± 2.1 | 12.9 ± 0.4 | 14.2 ± 0.8 |  | 
10 | CN(CCc1ccccc1)C(=O)C=Cc1ccc(O)c(O)c1 [Compound 642B] |  |  |  | capable of increasing the coronary flow rate | 9.8 ± 2.1 | 12.8 ± 1.9 | 17.4 ± 1.9 | 9.8 ± 2.1 | 10.4 ± 1.7 | 23.2 ± 1.7 | 
11 | CN(CCOc1ccc(CC2SC(=O)NC2=O)cc1)c1ccccn1 (centres unmarked) [Rosiglitazone, reference compound] |  |  |  |  |  |  |  |  |  |  | % decrease in plasma glucose (Type 2 diabetic rats): 15.6 ± 6.3%
12 | O=C(O)/C=C/c1ccc(O)c(O)c1 [caffeic acid] |  |  |  |  |  |  |  |  |  |  | lowering blood sugar (earlier studies) [1]: effective in lowering blood sugar
13 | COc1cc(CNC(=O)CCCC/C=C/C(C)C)ccc1O [capsaicin] |  |  |  |  |  |  |  |  |  |  | lowering blood sugar (earlier studies) [1]: effective in lowering blood sugar
